Assay results as given in ChEMBL document CHEMBL5120855, “Potent 2,3-dihydrophthalazine-1,4-dione derivatives as dual inhibitors for mono-ADP-ribosyltransferases PARP10 and PARP15” (Eur J Med Chem, 2022).

How the values were obtained:
[1] = biological target: Protein mono-ADP-ribosyltransferase PARP14 (Homo sapiens, UniProt Q460N5); assay: Inhibition of human PARP14 using NAD+ as substrate incubated for 10 mins by fluorescence based analysis
[2] = biological target: T1, Poly [ADP-ribose] polymerase tankyrase-2 (Homo sapiens, UniProt Q9H2K2); assay: Inhibition of human N-terminal 6His-tagged TNKS2 (1030 to 1317 residues) expressed in Escherichia coli Rosetta2 (DE3) cells using NAD+ as substrate incubated for 10 mins by fluorescence based analysis
T1 sequence (Q9H2K2 whole entry): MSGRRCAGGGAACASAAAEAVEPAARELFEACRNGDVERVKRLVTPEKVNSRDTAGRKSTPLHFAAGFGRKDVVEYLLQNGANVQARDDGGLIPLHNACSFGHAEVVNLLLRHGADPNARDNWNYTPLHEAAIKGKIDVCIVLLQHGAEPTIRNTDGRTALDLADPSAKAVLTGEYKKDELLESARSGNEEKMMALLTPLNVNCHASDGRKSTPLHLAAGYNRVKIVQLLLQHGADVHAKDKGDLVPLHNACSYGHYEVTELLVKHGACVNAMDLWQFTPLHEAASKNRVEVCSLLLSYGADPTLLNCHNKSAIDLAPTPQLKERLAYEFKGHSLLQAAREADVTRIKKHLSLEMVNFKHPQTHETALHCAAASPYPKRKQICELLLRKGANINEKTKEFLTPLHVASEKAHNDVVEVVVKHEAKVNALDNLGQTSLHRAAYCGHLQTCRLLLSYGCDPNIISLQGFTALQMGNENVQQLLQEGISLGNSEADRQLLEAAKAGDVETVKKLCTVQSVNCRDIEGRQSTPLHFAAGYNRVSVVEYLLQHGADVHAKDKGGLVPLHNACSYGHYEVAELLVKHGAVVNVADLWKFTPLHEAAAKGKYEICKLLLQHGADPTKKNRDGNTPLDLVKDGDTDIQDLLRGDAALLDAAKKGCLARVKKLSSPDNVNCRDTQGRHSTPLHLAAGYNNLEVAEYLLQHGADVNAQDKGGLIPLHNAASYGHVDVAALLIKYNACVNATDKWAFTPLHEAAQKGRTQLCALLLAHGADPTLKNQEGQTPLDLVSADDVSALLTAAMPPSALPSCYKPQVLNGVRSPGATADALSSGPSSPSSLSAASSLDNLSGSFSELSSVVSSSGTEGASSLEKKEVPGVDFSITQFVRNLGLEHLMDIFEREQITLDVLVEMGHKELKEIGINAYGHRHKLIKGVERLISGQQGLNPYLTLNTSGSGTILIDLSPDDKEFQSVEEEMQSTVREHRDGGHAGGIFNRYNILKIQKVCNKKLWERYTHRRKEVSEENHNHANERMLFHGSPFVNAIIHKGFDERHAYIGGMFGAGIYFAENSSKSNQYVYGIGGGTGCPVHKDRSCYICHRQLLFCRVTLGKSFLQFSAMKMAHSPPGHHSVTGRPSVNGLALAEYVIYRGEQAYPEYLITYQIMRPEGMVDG

HEK-293T [3] = assay: Cytotoxicity against HEK293T cells assessed as reduction in cell viability at 10 uM measured after 24 hrs by WST-1 assay; type: toxicity, cell-based; conditions: human
[4] = biological target: T2, Protein mono-ADP-ribosyltransferase PARP10 (Homo sapiens, UniProt Q53GL7); assay: Inhibition of human PARP-10 using NAD+ as substrate incubated for 10 mins by fluorescence based analysis
T2 sequence (Q53GL7 whole entry): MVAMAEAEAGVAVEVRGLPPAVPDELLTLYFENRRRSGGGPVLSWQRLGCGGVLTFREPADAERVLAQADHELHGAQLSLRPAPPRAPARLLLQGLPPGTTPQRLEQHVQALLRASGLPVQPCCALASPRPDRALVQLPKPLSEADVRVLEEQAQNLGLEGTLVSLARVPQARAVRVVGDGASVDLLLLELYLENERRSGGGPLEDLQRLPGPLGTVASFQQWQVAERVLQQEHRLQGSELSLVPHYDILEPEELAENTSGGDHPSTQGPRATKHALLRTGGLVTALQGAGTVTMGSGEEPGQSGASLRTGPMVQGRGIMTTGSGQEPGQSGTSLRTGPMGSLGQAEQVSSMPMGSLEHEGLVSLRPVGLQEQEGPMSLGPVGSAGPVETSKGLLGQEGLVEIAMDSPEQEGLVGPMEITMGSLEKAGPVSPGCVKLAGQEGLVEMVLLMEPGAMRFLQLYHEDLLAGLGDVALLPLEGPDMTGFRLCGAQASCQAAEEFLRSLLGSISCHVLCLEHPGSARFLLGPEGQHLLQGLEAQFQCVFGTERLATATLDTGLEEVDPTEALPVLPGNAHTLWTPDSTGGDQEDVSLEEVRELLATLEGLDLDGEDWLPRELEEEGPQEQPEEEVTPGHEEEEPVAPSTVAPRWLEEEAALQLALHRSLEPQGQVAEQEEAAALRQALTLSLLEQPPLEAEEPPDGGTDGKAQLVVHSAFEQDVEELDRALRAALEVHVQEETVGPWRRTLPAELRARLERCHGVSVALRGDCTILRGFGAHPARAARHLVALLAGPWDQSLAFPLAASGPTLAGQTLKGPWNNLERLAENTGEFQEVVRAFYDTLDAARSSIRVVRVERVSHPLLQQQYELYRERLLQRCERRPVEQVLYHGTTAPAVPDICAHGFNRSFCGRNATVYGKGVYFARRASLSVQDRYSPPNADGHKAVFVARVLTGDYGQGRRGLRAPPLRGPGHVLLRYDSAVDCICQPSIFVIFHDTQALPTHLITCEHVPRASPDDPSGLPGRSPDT

[5] = biological target: T3, Protein mono-ADP-ribosyltransferase PARP15 (Homo sapiens, UniProt Q460N3); assay: Inhibition of human N-terminal 6His-tagged PARP15 (460 to 656 residues) expressed in Escherichia coli Rosetta2 (DE3) cells using NAD+ as substrate incubated for 10 mins by fluorescence based analysis
T3 sequence (Q460N3 whole entry): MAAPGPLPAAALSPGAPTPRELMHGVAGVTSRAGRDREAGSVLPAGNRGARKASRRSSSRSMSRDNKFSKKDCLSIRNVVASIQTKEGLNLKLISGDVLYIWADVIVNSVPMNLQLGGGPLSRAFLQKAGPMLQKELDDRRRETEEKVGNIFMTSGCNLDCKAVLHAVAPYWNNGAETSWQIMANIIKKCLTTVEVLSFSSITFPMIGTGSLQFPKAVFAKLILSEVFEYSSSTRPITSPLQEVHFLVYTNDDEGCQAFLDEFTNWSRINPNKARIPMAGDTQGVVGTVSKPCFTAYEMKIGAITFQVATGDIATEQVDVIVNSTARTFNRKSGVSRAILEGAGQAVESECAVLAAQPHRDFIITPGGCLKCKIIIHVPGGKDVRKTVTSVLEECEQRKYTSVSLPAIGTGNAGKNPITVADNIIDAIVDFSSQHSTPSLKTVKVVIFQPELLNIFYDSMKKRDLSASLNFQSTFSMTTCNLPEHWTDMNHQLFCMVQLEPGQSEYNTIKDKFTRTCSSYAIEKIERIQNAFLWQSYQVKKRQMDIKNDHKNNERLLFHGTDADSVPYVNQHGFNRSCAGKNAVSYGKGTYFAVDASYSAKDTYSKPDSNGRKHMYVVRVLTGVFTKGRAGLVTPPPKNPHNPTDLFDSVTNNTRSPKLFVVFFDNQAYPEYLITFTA

[6] = biological target: Poly [ADP-ribose] polymerase 2 (Homo sapiens, UniProt Q9UGN5); assay: Inhibition of human PARP2 using NAD+ as substrate incubated for 10 mins by fluorescence based analysis
Sequence of Poly [ADP-ribose] polymerase 2 (Q9UGN5 whole entry): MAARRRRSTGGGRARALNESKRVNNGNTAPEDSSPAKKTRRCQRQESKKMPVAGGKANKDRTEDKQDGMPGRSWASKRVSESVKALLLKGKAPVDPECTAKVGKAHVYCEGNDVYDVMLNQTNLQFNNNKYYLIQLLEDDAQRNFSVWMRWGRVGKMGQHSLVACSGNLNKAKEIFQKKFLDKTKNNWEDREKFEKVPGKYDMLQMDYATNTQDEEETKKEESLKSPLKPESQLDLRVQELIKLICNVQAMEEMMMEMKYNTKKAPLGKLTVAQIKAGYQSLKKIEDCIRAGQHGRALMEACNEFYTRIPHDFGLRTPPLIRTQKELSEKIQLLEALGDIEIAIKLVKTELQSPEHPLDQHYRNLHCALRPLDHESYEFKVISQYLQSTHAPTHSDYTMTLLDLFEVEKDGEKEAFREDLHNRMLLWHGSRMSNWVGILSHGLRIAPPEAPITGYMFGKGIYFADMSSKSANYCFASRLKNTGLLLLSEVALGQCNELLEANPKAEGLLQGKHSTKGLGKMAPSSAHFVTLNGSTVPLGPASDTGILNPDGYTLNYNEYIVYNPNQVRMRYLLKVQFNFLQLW

HEK-293T [7] = assay: Cytotoxicity against HEK293T cells assessed as reduction in cell viability at 100 uM measured after 24 hrs by WST-1 assay; type: toxicity, cell-based; conditions: human
HeLa = assay: Rescue of cell viability in human HeLa cells expressing wild type PARP10 at upto 10 uM incubated for 10 to 12 days by methylene blue dye based colony formation assay; type: functional
[8] = biological target: T3, Protein mono-ADP-ribosyltransferase PARP15; assay: Inhibition of PARP15 (unknown origin)

Sequence of Protein mono-ADP-ribosyltransferase PARP14 (Q460N5 whole entry, the tested form may be a part): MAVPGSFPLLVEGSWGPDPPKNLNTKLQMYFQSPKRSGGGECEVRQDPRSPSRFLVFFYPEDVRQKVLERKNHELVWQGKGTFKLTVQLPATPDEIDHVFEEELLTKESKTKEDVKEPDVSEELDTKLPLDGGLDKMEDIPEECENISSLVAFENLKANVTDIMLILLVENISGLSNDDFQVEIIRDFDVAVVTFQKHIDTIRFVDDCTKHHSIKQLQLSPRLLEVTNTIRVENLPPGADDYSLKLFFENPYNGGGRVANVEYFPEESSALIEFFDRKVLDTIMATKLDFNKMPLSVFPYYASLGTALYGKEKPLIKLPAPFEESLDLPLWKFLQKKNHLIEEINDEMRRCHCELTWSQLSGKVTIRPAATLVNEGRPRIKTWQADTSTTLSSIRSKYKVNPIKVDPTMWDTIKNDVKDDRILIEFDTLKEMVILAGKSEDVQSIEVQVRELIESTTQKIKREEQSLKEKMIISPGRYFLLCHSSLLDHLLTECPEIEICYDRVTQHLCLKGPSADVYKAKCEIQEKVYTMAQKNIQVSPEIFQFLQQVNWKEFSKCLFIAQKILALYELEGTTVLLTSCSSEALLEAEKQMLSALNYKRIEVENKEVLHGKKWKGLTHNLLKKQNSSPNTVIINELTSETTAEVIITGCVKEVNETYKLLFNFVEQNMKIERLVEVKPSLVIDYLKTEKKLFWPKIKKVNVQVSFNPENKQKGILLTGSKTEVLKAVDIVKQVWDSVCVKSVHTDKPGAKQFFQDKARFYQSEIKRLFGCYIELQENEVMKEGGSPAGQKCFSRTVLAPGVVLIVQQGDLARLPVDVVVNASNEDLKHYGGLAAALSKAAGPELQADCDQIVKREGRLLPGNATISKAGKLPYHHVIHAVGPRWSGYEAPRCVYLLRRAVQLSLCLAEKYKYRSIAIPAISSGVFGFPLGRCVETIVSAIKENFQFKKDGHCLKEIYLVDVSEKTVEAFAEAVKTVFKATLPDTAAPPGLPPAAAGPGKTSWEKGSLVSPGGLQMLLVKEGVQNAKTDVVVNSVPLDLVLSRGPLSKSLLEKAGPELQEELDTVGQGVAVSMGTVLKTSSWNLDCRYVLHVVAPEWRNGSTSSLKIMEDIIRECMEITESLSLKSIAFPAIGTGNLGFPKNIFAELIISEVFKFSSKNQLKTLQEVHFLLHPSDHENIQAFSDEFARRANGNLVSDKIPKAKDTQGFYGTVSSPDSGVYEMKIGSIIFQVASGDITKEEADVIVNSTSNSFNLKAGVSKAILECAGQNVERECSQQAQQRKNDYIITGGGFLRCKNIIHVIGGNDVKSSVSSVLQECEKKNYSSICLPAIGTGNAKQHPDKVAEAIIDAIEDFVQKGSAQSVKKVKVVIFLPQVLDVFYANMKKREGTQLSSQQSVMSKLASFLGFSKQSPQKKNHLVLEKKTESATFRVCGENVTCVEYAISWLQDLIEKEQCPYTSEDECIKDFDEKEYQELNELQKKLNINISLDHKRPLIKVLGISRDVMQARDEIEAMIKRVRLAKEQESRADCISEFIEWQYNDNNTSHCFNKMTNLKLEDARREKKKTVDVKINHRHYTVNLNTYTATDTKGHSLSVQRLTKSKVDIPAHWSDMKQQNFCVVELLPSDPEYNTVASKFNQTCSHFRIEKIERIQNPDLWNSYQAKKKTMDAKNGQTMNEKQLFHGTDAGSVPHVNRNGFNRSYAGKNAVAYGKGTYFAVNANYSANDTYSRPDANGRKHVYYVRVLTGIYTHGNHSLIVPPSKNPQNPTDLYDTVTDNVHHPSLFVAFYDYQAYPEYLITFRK

Row | Compound | IC50 [1] | IC50 [2] | Activity (HEK-293T [3]) | IC50 [4] | IC50 [5] | IC50 [6] | Activity (HEK-293T [7]) | EC50 (HeLa) | IC50 [8]
1 | NC(=O)c1ccc(OCc2cncs2)cc1 | > 10 µM | > 100 µM | Non-Toxic | 1600 nM | 2400 nM | > 100 µM | – | – | –
2 | NC(=O)c1ccc(OCc2cccc(Br)c2)cc1F | > 10 µM | > 100 µM | Non-Toxic | 1500 nM | 600 nM | > 100 µM | – | – | –
3 | COc1cc(OCc2cccc3ccccc23)ccc1C(N)=O | > 100 µM | > 100 µM | Non-Toxic | 5000 nM | 2200 nM | > 100 µM | – | – | –
4 | NC(=O)c1ccc(OCC2CCCCC2)cc1F | > 10 µM | > 100 µM | Non-Toxic | 960 nM | > 10000 nM | > 100 µM | – | – | –
5 | NC(=O)c1ccc(OCC2CCC2)cc1OCCN1CCNCC1 | > 10 µM | > 100 µM | Non-Toxic | > 10000 nM | > 10000 nM | > 100 µM | – | – | –
6 | O=c1[nH][nH]c(=O)c2cc(OCC3CC3)ccc12 | > 10 µM | > 100 µM | Non-Toxic | 310 nM | 1200 nM | > 100 µM | – | – | –
7 | NC(=O)c1ccc(OCC2CCCCC2)cc1OCc1ccccn1 | > 10 µM | > 100 µM | Non-Toxic | > 10000 nM | > 10000 nM | > 100 µM | – | – | –
8 | COc1ccccc1COc1ccc(C(N)=O)c(F)c1 | 6.8 µM | > 100 µM | Non-Toxic | 8200 nM | > 10000 nM | > 100 µM | – | – | –
9 | NC(=O)c1ccc(OCC2CCCC2)cc1 | > 10 µM | > 100 µM | Non-Toxic | 590 nM | 3800 nM | > 100 µM | – | – | –
10 | COc1cc(OCc2ccccc2F)ccc1C(N)=O | > 10 µM | > 100 µM | Non-Toxic | 1900 nM | 2600 nM | > 100 µM | Toxic | – | –
11 | O=c1[nH][nH]c(=O)c2cc(OCc3ccsc3)ccc12 | – | – | Non-Toxic | 160 nM | 400 nM | – | – | 950 nM | –
12 | COc1cc(OCc2cccc(Br)c2)ccc1C(N)=O | > 100 µM | > 100 µM | Non-Toxic | > 10000 nM | 2500 nM | > 100 µM | – | – | –
13 | Cc1cccc(C(=O)N[C@H](C(N)=O)C(=O)c2ccc3c(=O)[nH][nH]c(=O)c3c2)c1 | – | – | – | – | – | – | – | – | 200 nM
14 | O=c1[nH][nH]c(=O)c2cc(OCc3cccc(Br)c3)ccc12 | > 100 µM | > 100 µM | Non-Toxic | 1200 nM | 1300 nM | > 100 µM | – | – | –
15 | NC(=O)c1ccc(OCC2CCCCC2)cc1 | > 100 µM | > 100 µM | Non-Toxic | 1700 nM | 3600 nM | > 100 µM | – | – | –
16 | NC(=O)c1ccc(OCC2CCC2)cc1F | > 10 µM | > 100 µM | Non-Toxic | 620 nM | 6000 nM | > 100 µM | – | – | –
17 | O=c1[nH][nH]c(=O)c2cc(OCC3CCC3)ccc12 | > 10 µM | > 100 µM | Non-Toxic | 160 nM | 370 nM | > 100 µM | – | – | –
18 | O=c1[nH][nH]c(=O)c2cc(OCC3CCCC3)ccc12 | > 10 µM | > 100 µM | Non-Toxic | 130 nM | 320 nM | > 100 µM | – | – | –
19 | COc1cc(OCC2CCCCC2)ccc1C(N)=O | > 100 µM | > 100 µM | Non-Toxic | 4400 nM | 5000 nM | > 100 µM | – | – | –
20 | NC(=O)c1ccc(OCC2CC2)cc1 | > 10 µM | > 100 µM | Non-Toxic | 600 nM | 4800 nM | 53 µM | – | – | –
21 | O=c1[nH][nH]c(=O)c2cc(OCC3CCCCC3)ccc12 | – | – | Non-Toxic | 140 nM | 400 nM | – | – | 1500 nM | –
22 | O=c1[nH][nH]c(=O)c2cc(OCc3ccccc3F)ccc12 | – | – | Non-Toxic | 150 nM | 370 nM | – | – | 1600 nM | –
